Data published in patent publication US9399645B2, “Inhibitors of HIV replication” (Boehringer Ingelheim International GmbH, priority 2011, dated 2016).

How the values were obtained:
[1] = Caco-2 Permeability Assay; assay type: in vitro ADME; settings: human, apparent permeability A to B, compound at 10 μM, apical buffer pH 6.0, basolateral buffer pH 7.4, read-out: Papp (cm/sec, *10^−6)
Excerpt: Caco-2 Permeability Assay Caco-2 cells are purchased from Cell Culture Services as frozen instant cells at a concentration of 1*10^7 cells/vial. DMEM+glutamax-I culture media is purchased from Gibco (10569). Fetal bovine serum (FBS) is purchased from HyClone (SH30396.03). Pennicilin/Streptomycin antibiotics are purchased from Gibco (15140). MEM non-essential amino acids are purchased from Gibco (11140). Hank's balanced salt solution (HBSS) is purchased from Gibco (14025). Bovine serum albumin (BSA) is purchased from Sigma-Aldrich (A7906). MES low moisture is purchased from Sigma-Aldrich (M3671). HEPES is purchased from Sigma-Aldrich (H3375). Dimethyl Sulfoxide (DMSO) is purchased from EMD (MX1457-6). Complete DMEM media is prepared by adding 1 L of FBS, 100 mL of pen/strep and 110 mL of MEM non essential amino acids to 10 L of DMEM+glutamax-I. […] Caco-2 cells are seeded on HTS transwell 24-well plates purchased from Corning (3397). These polycarbonate membrane plates have a diameter of […] and pore size of 0.4 μm. The Caco-2 cells vial is thawed in a 37° C. water bath until only a small ice pellet is left. The vial is then transferred to the laminar flow hood and its exterior is extensively washed with 70% ethanol. The total content of the vial (2 mL) is transferred into a 50 mL tube containing 38 mL of complete DMEM. […] The seeding is done by the Hamilton star robotic station which is controlled with the Venus program. Each well will receive 600 μL of complete DMEM on its basolateral side and 200 μL of cells on its apical side. Each well receives 50 000 cells. The 24-well plates are then returned to an automated Liconic STX110 incubator set at 37° C., 5% CO2 and 100% humidity. The culture media for the cells is changed every two days except on weekends. These cells are maintained for a period of two weeks prior to the running of the permeability assay. Permeability assays are usually performed between day 15 and 18 after the initial seeding. […] Controls for the assay are mannitol for tight junction determination and Digoxin for efflux transporter (p-glycoprotein) expression. On the day of the assay, each compound is diluted to 10 μM in the buffer (apical for A to B). 6 μl of the 5 mM DMSO stock is added to 3 mL of the buffer in a 24-well 10 mL deep plate covered with a lid. The plate containing all the diluted compounds is spun for 10 min at 3000 rpm in a Rotanta 46 RSC centrifuge from Hettich to remove unsoluble compound. This dilution is used to add at the start of the incubation. Each compound is tested in duplicate. On the day of the assay, the culture media of the 24-well plate is removed and replaced with warm HBSS. The HBSS is then also removed and the Apical and Basolatral buffer are added to their respective side of the transwells. These steps are performed by the Hamilton Star robotic station. The plate is then placed in a 37° C. incubator and is left to equilibrate for 30 min. After 30 min of incubation a background sample (25 μL from each well) is taken from the receiver side (Basolateral for A to B), and replenished with warm buffer. These samples and all others afterwards are kept in a 96-well 1 mL plate. To start the assay, the donor compartment (apical for A to B) is emptied and replaced with new buffer containing the compound at 10 μM. Once the compounds are added, the plate is returned to the 37° C. incubator and the timer is started. In order to determine how much compound is actually added to each well, a 50 μL sample is taken from each compound dilution, this sample is refered to as the load. These steps and the following are performed by the Tecan Freedom EVO robotic station controlled via the Gemini software. For A-to-B Assay: Samples (190 μL) are taken from each basolateral (receiver) chamber at time points 0, 60, 120 and 180 min or at time points 0, 30, 60 and 90 min. From the 190 μL taken, 50 μL is transferred to the receiving plate and 140 μL is discarded.

HIV-1 = test: C8166 HIV-1 Luciferase Assay (EC50); assay type: cell-based; settings: Human immunodeficiency virus 1, C8166, 72 h
Procedure: C8166 HIV-1 Luciferase Assay (Ec50)
The assay used to measure inhibition of HIV replication is as described in WO 2004/050643, pages 73-75, incorporated herein by reference, with the following modifications:
Serial dilutions of HIV-1 inhibitors are prepared in complete media from DMSO stock solutions. Eleven serial dilutions of desired concentration are prepared in a 1 mL deep well titer plate (96 wells). The 12th well contains complete media with no inhibitor and serves as the positive control. All samples contain the same concentration of DMSO (<0.1% DMSO). Inhibitor is added, to triplicate wells, of a 96 well tissue culture treated clear view black microtiter plate (Corning Costar catalogue #3904). The total volume per well is 200 μL of media containing the cells and inhibitor. The last row is reserved for uninfected C8166 LTRIuc cells to serve as the background blank control and the first row is media alone.
Count C8166 LTRIuc cells and place in a minimal volume of complete RPMI 1640 in a tissue culture flask (ex. 30×10^6 cells in 10 mL media/25 cm^2 flask). Infect cells with HIV-1 at a moi of 0.005. Incubate cells for 1.5 h at 37° C. on a rotating rack in a 5% CO2 incubator. Resuspend cells in complete RPMI to give a final concentration of 25,000-cells/well. Add cells to wells of 96 well microtiter plate containing inhibitors. Add 25,000 uninfected C8166-LTRIuc cells/well in 200 μL complete RPMI to last row for background control. Incubate cells at 37° C. in 5% CO2 incubator for 3 days.
50 μL Steady Glo (luciferase substrate T112=5 hours Promega catalogue # E2520) is added to each well of the 96 well plate. The relative light units (RLU) of luciferase are determined using a luminescence plate reader. The calculated % inhibition values are used to determine EC50, slope factor (n) and maximum inhibition (Imax).

## CC[C@H]1C[C@@H](n2c(=O)nc(-c3cnn(C)c3)c3oc4cc(F)c(-c5ccc(C(C)O)nc5)cc4c32)CCO1 (stereo partly shown) [Compound 1046]
[1]
  Papp A→B at 10 μM: 17.9 ×10⁻⁶ cm/s
HIV-1
  EC50: 110 nM

## CC[C@H]1C[C@@H](n2c(=O)nc(-c3cnn(C)c3)c3oc4c(OC)cc(-c5cnn(C)c5)cc4c32)CCO1 [Compound 1057]
[1]
  Papp A→B at 10 μM: 14.9 ×10⁻⁶ cm/s
HIV-1
  EC50: 2.2 nM

## CCn1cc(-c2cnc3oc4c(-c5ccc(NC)nc5)nc(=O)n(CCC5CCCCO5)c4c3c2)cn1 (stereo not shown) [Compound 1067]
[1]
  Papp A→B at 10 μM: 5.3 ×10⁻⁶ cm/s
HIV-1
  EC50: 40 nM

## CC[C@H]1C[C@@H](n2c(=O)nc(-c3cnn(C)c3)c3oc4c(C#N)cc(-c5cn(C)cn5)cc4c32)CCO1 [Compound 1098]
[1]
  Papp A→B at 10 μM: 5.3 ×10⁻⁶ cm/s
HIV-1
  EC50: 9.9 nM

## CC[C@@H]1C[C@H](n2c(=O)nc(-c3ccc(NC)nc3)c3oc4ccc(-c5cnn(C)c5)cc4c32)CO1 (racemic) [Compound 1037]
[1]
  Papp A→B at 10 μM: 8.2 ×10⁻⁶ cm/s
HIV-1
  EC50: 10.2 nM

## CNc1ccc(-c2nc(=O)n(CCC3CCCO3)c3c2oc2ncc(-c4cnn(CC5CC5)c4)cc23)cn1 (stereo not shown) [Compound 1068]
[1]
  Papp A→B at 10 μM: 8.1 ×10⁻⁶ cm/s
HIV-1
  EC50: 78 nM

## CC[C@H]1C[C@@H](n2c(=O)nc(-c3cnn(C)c3)c3oc4cc(C#N)c(-c5ccn(C)n5)cc4c32)CCO1 [Compound 1054]
[1]
  Papp A→B at 10 μM: 20.3 ×10⁻⁶ cm/s
HIV-1
  EC50: 32.2 nM

## CC[C@H]1C[C@@H](n2c(=O)nc(-c3cnn(C)c3)c3oc4c(C)nc(-c5cnn(C)c5)cc4c32)CCO1 [Compound 1082]
[1]
  Papp A→B at 10 μM: 18.9 ×10⁻⁶ cm/s
HIV-1
  EC50: 3.3 nM

## CC[C@H]1C[C@@H](n2c(=O)nc(-c3cnn(C)c3)c3oc4nc(C)c(-c5cnco5)cc4c32)CCO1 [Compound 1080]
[1]
  Papp A→B at 10 μM: 12.4 ×10⁻⁶ cm/s
HIV-1
  EC50: 120 nM

## CCC[C@H]1C[C@@H](n2c(=O)nc(-c3cnn(C)c3)c3oc4cc(C#N)c(-c5cnn(C)c5)nc4c32)CCO1 [Compound 1018]
[1]
  Papp A→B at 10 μM: 19.8 ×10⁻⁶ cm/s
HIV-1
  EC50: 22 nM

## CC[C@H]1C[C@@H](n2c(=O)nc(-c3cnn(C)c3)c3oc4cnc(-n5ccnc5)cc4c32)CCO1 [Compound 1090]
[1]
  Papp A→B at 10 μM: 8.7 ×10⁻⁶ cm/s
HIV-1
  EC50: 160 nM

## CC[C@H]1C[C@@H](n2c(=O)nc(-c3cnn(C)c3)c3oc4ccc(-c5cn(C)nc5C)nc4c32)CCO1 [Compound 1002]
[1]
  Papp A→B at 10 μM: 14.5 ×10⁻⁶ cm/s
HIV-1
  EC50: 8.6 nM

## CC[C@H]1C[C@@H](n2c(=O)nc(-c3cnn(C)c3)c3oc4cc(F)c(-c5ccc(CO)nc5)cc4c32)CCO1 [Compound 1045]
[1]
  Papp A→B at 10 μM: 9.4 ×10⁻⁶ cm/s
HIV-1
  EC50: 17.3 nM

## Cn1cc(-c2cnc3oc4c(-c5cnn(C)c5)nc(=O)n(CCC5CCCCO5)c4c3c2)cn1 (stereo not shown) [Compound 1074]
[1]
  Papp A→B at 10 μM: 11 ×10⁻⁶ cm/s
HIV-1
  EC50: 90 nM

## CNc1ccc(-c2nc(=O)n(CCC3CCCO3)c3c2oc2cc(F)c(-c4cnn(C)c4)cc23)cn1 (stereo not shown) [Compound 1032]
[1]
  Papp A→B at 10 μM: 7.7 ×10⁻⁶ cm/s
HIV-1
  EC50: 11.9 nM

## CC[C@H]1C[C@@H](n2c(=O)nc(-c3cnn(C)c3)c3oc4ccc(-c5cnn(C)c5)nc4c32)C[C@@H](C)O1 [Compound 1009]
[1]
  Papp A→B at 10 μM: 27.6 ×10⁻⁶ cm/s
HIV-1
  EC50: 4.6 nM

## CNc1ccc(-c2nc(=O)n(CCC3CCCCO3)c3c2oc2ccc(-c4cnn(C)c4)cc23)cn1 (stereo not shown) [Compound 1036]
[1]
  Papp A→B at 10 μM: 7.6 ×10⁻⁶ cm/s
HIV-1
  EC50: 6.8 nM

## CC[C@H]1C[C@@H](n2c(=O)nc(-c3cnn(C)c3)c3oc4ccc(-c5cnn(CC)c5)cc4c32)CCO1 [Compound 1041]
[1]
  Papp A→B at 10 μM: 26.9 ×10⁻⁶ cm/s
HIV-1
  EC50: 6.6 nM

## CC[C@H]1C[C@@H](n2c(=O)nc(-c3cnn(CC)c3)c3oc4ncc(-c5cnn(CC)c5)cc4c32)CCO1 [Compound 1072]
[1]
  Papp A→B at 10 μM: 21.4 ×10⁻⁶ cm/s
HIV-1
  EC50: 110 nM

## CC[C@H]1C[C@@H](n2c(=O)nc(-c3ccc(NC)nc3)c3oc4cnc(-c5cnn(C)c5)cc4c32)CCO1 [Compound 1077]
[1]
  Papp A→B at 10 μM: 14.7 ×10⁻⁶ cm/s
HIV-1
  EC50: 6 nM

## CC[C@H]1C[C@@H](n2c(=O)nc(-c3cnn(C)c3)c3oc4ncc(-c5cnn(C)c5)cc4c32)CCO1 [Compound 1061]
[1]
  Papp A→B at 10 μM: 9.3 ×10⁻⁶ cm/s
HIV-1
  EC50: 20.3 nM

## CC[C@H]1C[C@@H](n2c(=O)nc(-c3cnn(C)c3)c3oc4cc(C#N)c(-c5cnn(C)c5)nc4c32)CCO1 [Compound 1015]
[1]
  Papp A→B at 10 μM: 20.7 ×10⁻⁶ cm/s
HIV-1
  EC50: 3 nM

## CC[C@H]1C[C@@H](n2c(=O)nc(-c3cnn(C)c3)c3oc4ccc(-c5cccnc5)nc4c32)CCO1 [Compound 1006]
[1]
  Papp A→B at 10 μM: 18.1 ×10⁻⁶ cm/s
HIV-1
  EC50: 7.4 nM

## CC[C@H]1C[C@@H](n2c(=O)nc(-c3cnn(C)c3)c3oc4ccc(-c5cccnc5)cc4c32)CCO1 [Compound 1040]
[1]
  Papp A→B at 10 μM: 19.2 ×10⁻⁶ cm/s
HIV-1
  EC50: 12.8 nM

## CC[C@H]1C[C@@H](n2c(=O)nc(-c3cnn(C)c3)c3oc4cc(Cl)c(-c5cnn(C)c5)cc4c32)CCO1 [Compound 1048]
[1]
  Papp A→B at 10 μM: 22.1 ×10⁻⁶ cm/s
HIV-1
  EC50: 6 nM

## CC[C@H]1C[C@@H](n2c(=O)nc(-c3cnn(C)c3)c3oc4ccc(-c5cn(C)cn5)nc4c32)C[C@@H](C)O1 [Compound 1095]
[1]
  Papp A→B at 10 μM: 39.8 ×10⁻⁶ cm/s
HIV-1
  EC50: 8.6 nM

## CC[C@H]1C[C@@H](n2c(=O)nc(-c3cnn(C)c3)c3oc4cc(F)c(-c5cnc(C)o5)cc4c32)CCO1 [Compound 1044]
[1]
  Papp A→B at 10 μM: 12.4 ×10⁻⁶ cm/s
HIV-1
  EC50: 22 nM

## CC[C@H]1C[C@@H](n2c(=O)nc(-c3ccccn3)c3oc4ccc(-c5cn(C)cn5)nc4c32)CCO1 [Compound 1102]
[1]
  Papp A→B at 10 μM: 24.6 ×10⁻⁶ cm/s
HIV-1
  EC50: 57 nM

## CNc1ccc(-c2nc(=O)n(CCC3CCCO3)c3c2oc2ncc(-c4cnco4)cc23)cn1 (stereo not shown) [Compound 1066]
[1]
  Papp A→B at 10 μM: 8.3 ×10⁻⁶ cm/s
HIV-1
  EC50: 110 nM
